Data reported in ChEMBL document CHEMBL1148294, “Synthesis, in vitro evaluation, and antileishmanial activity of water-soluble prodrugs of buparvaquone” (J Med Chem, 2004).
In brackets after ≈: the same amount, converted by molar mass.

How the values were obtained:
Leishmania major [1] = assay: Effective dose was determined for intracellular amastigotes of Leishmania major JISH118 at 72 hr in infected macrophages at 34 degree C (experiment 2); conditions: read-out: ED50 (the source's name)
Leishmania amazonensis [2] = assay: Effective dose was determined for intracellular amastigotes of Leishmania amazonensis LV81 at 72 hr in infected macrophages at 34C (experiment 1); assay type: functional; conditions: read-out: ED50 (the source's name)
[3] = Half-life for rate of hydrolysis was determined at pH 5; assay type: ADME; conditions: buffer
[4] = Aqueous Solubility at pH 3; assay type: physicochemical
Leishmania major [5] = assay: Effective dose was determined for extracellular promastigotes of Leishmania major JISH118 at 72 h; assay type: functional; conditions: read-out: ED50 (the source's name)
Leishmania donovani [6] = assay: Effective dose was determined for intracellular amastigotes of Leishmania donovani L82 at 72 hr in infected macrophages at 37C (experiment 1); conditions: read-out: ED50 (the source's name)
[7] = Half-life for rate of hydrolysis was determined at pH 7.4; assay type: ADME; conditions: buffer
Leishmania major [8] = assay: Effective dose was determined for intracellular amastigotes of Leishmania major JISH118 at 72 hr in infected macrophages at 34C (experiment 1); assay type: functional; conditions: read-out: ED50 (the source's name)
[9] = Aqueous Solubility at pH 5; assay type: physicochemical
Leishmania aethiopica [10] = assay: Effective dose was determined for intracellular amastigotes of Leishmania aethiopica Khartoum at 72 hr in infected macrophages at 34C (experiment 1); assay type: functional; conditions: read-out: ED50 (the source's name)
Leishmania mexicana [11] = assay: Effective dose was determined for intracellular amastigotes of Leishmania mexicana LV4 at 72 hr in infected macrophages at 34C (experiment 1); assay type: functional; conditions: read-out: ED50 (the source's name)
[12] = Ionization constant (pKa) was determined; assay type: physicochemical
Leishmania aethiopica [13] = assay: Effective dose was determined for extracellular promastigotes of Leishmania aethiopica Khartoum at 72 h; assay type: functional; conditions: read-out: ED50 (the source's name)
alkaline phosphatase = assay: Half-life for rate of hydrolysis was determined in alkaline phosphatase solution (pH 7.4); assay type: ADME
[14] = Distribution Coefficient at pH 5; assay type: physicochemical; conditions: octanol/water
Leishmania donovani [15] = assay: Effective dose was determined for extracellular promastigotes of Leishmania donovani L82 at 72 h; assay type: functional; conditions: read-out: ED50 (the source's name)
Leishmania mexicana [16] = assay: Effective dose was determined for extracellular promastigotes of Leishmania mexicana BEL21 at 72 h; assay type: functional; conditions: read-out: ED50 (the source's name)
[17] = Aqueous Solubility at pH 7.4; assay type: physicochemical
Leishmania amazonensis [18] = assay: Effective dose was determined for extracellular promastigotes of Leishmania amazonensis LV81 at 72 h; assay type: functional; conditions: read-out: ED50 (the source's name)
Leishmania panamensis [19] = assay: Effective dose was determined for extracellular promastigotes of Leishmania panamensis BOYNTON at 72 h; assay type: functional; conditions: read-out: ED50 (the source's name)
Leishmania donovani [20] = assay: Effective dose was determined for intracellular amastigotes of Leishmania donovani L82 at 72 hr in infected macrophages at 37 degree C (experiment 2); assay type: functional; conditions: read-out: ED50 (the source's name)
[21] = Distribution Coefficient at pH 7.4; assay type: physicochemical; conditions: octanol/water
Leishmania panamensis [22] = assay: Effective dose was determined for intracellular amastigotes of Leishmania panamensis BOYNTON at 72 hr in infected macrophages at 34C (experiment 1); assay type: functional; conditions: read-out: ED50 (the source's name)
[23] = Half-life for rate of hydrolysis was determined in human skin homogenate (pH 7.4); assay type: ADME, tissue-based, Zone of skin
Leishmania aethiopica [24] = assay: Effective dose was determined for intracellular amastigotes of Leishmania aethiopica Khartoum at 72 hr in infected macrophages at 34 degree C (experiment 2); conditions: read-out: ED50 (the source's name)
[25] = Distribution Coefficient at pH 3; assay type: physicochemical; conditions: octanol/water
[26] = Half-life for rate of hydrolysis was determined at pH 3; assay type: ADME; conditions: buffer
Leishmania mexicana [27] = assay: Effective dose was determined for intracellular amastigotes of Leishmania mexicana LV4 at 72 hr in infected macrophages at 34 degree C (experiment 2); conditions: read-out: ED50 (the source's name)
Leishmania mexicana [28] = assay: Effective dose was determined for extracellular promastigotes of Leishmania mexicana LV4 at 72 h; assay type: functional; conditions: read-out: ED50 (the source's name)
Leishmania panamensis [29] = assay: Effective dose was determined for intracellular amastigotes of Leishmania panamensis BOYNTON at 72 h in infected macrophages at 34 degree C (experiment 2); conditions: read-out: ED50 (the source's name)

SMILES | EC50 (Leishmania major [1]) | EC50 (Leishmania amazonensis [2]) | solubility [4] | EC50 (Leishmania major [5]) | EC50 (Leishmania donovani [6]) | EC50 (Leishmania major [8]) | solubility [9] | EC50 (Leishmania aethiopica [10]) | EC50 (Leishmania mexicana [11]) | pKa [12] | EC50 (Leishmania aethiopica [13]) | EC50 (Leishmania donovani [15]) | EC50 (Leishmania mexicana [16]) | solubility [17] | EC50 (Leishmania amazonensis [18]) | EC50 (Leishmania panamensis [19]) | EC50 (Leishmania donovani [20]) | EC50 (Leishmania panamensis [22]) | EC50 (Leishmania aethiopica [24]) | logD [25] | further results
CC(C)(C)C1CCC(CC2=C(OCOP(=O)(O)O)C(=O)c3ccccc3C2=O)CC1 (stereo not drawn) | 1.89 µM | 8.81 µM | > 3500 µg/mL | 0.012 µM | 1.25 µM | 0.81 µM | > 3500 µg/mL | 1.66 µM | 2.58 µM | 2.28 | 0.057 µM | 0.003 µM | 0.005 µM | > 3500 µg/mL | 0.007 µM | 0.12 µM | 1.22 µM | < 1.12 µM | 3.99 µM | 2.96 | half-life [3]: 8 h; half-life [7]: 0.5 h; half-life (alkaline phosphatase): 3.8 min; logD [14]: 1.83; logD [21]: 1.16; half-life [23]: 0.175 h; half-life [26]: 97 h; EC50 (Leishmania mexicana [27]): 2.51 µM; EC50 (Leishmania mexicana [28]): 0.01 µM; EC50 (Leishmania panamensis [29]): 1.19 µM
CC(C)(C)C1CCC(CC2=C(OP(=O)(O)O)C(=O)c3ccccc3C2=O)CC1 (stereo not drawn) | 6.27 µM | 15.7 µM | > 3500 µg/mL | 0.064 µM | 4.12 µM | 1.37 µM | > 3500 µg/mL | 2.33 µM | 7.03 µM | 2.68 | 0.122 µM | 0.009 µM | 0.024 µM | > 3500 µg/mL | 0.024 µM | 0.124 µM | 4.31 µM | 0.555 µM | 7.35 µM | 1.87 | half-life [3]: 50 h; half-life [7]: 17 h; half-life (alkaline phosphatase): 1.2 min; logD [14]: 1.27; logD ([21]; read-out: logD): 0.47; half-life [23]: 8.7 h; half-life [26]: 72 h; EC50 (Leishmania mexicana [27]): 4.03 µM; EC50 (Leishmania mexicana [28]): 0.039 µM; EC50 (Leishmania panamensis [29]): 2.06 µM
CC(C)(C)[C@H]1CC[C@H](CC2=C(O)C(=O)c3ccccc3C2=O)CC1 [BUPARVAQUONE] | 1.8 µM | 5.5 µM | < 0.03 µg/mL | 0.001 µM | 0.48 µM | 0.434 µM | < 0.03 µg/mL | 0.633 µM | 1.44 µM | 5.7 | 0.013 µM | 0.006 µM | 0.002 µM | 0.03 µg/mL (≈ 9.19e-05 mM) | 0.004 µM | 0.042 µM | 0.43 µM | 0.37 µM | 3.64 µM | 7.02 | EC50 (Leishmania mexicana [27]): 1.25 µM; EC50 (Leishmania mexicana [28]): 0.004 µM; EC50 (Leishmania panamensis [29]): 0.923 µM
